# According to patent publication US7045495B2 (Sloan-Kettering Institute for Cancer Research, priority 1996, dated 2006):
# Several values for one entry are separate records, joined by “and”; a condition that tells them apart may be missing. Identical values can stand only once.
# How the values were obtained:
# SK-GT-5 cells = experiment: apoptosis by quantitative fluorescent microscopy (QFM), Hoechst-33258 staining; format: cell-based, human; conditions: for percentage of cells undergoing apoptosis (QFM): FIG. 4: safingol 50 μM and/or PMA 1 ng/ml for 1 hour, then MMC 5 μg/ml or no drug 24 hours, MMC alone 24 hours
# Procedure: (§1) Apoptosis was measured by two different methods: (i) Quantitative fluorescent microscopy (QFM) of nuclear changes induced by apoptosis, as determined by bisbenzimide trihydrochloride (Hoescht-33258) staining of nuclear chromatin (15), and (ii) a terminal deoxynucleotidyl transferase (TdT) assay that labels the 3′-OH ends of DNA fragments produced in apoptotic cells (16). […] MMC was diluted in water. A stock safingol solution was constituted in DMSO and was subsequently diluted at least 1:100 in media for all experiments. […] For QFM determinations, the cells were fixed in 3% paraformaldehyde and incubated at room temperature for 10 minutes. The fixative was removed and the cells were washed with 1×PBS, resuspended in 20 μl 1×PBS containing only 8 μg/ml of bisbenzimide trihydrochloride (Hoechst #33258), and incubated at room temperature for 15 minutes. Aliquots of the cells (10 μl) were placed on glass slides coated with 3-amino-propyl-triethoxysilane, and duplicate samples of 500 cells each were counted and scored for the incidence of apoptotic chromatin condensation using an Olympus BH-2 fluorescence microscope equipped with a BH2-DM2U2UV Dich. Mirror Cube filter (Olympus, Lake Success, N.Y.). For the TdT assays, the ApopTag Kit (Oncor, Gaithersburg, Md.) was used. This method employs a fluoresceinated antidigoxigenin antibody directed against nucleotides of digoxigenin-11-dUTP (d-dUTP) which are catalytically added to the 3-ends fragmented DNA by TdT. Briefly, 1–2×10^6 cells were washed and fixed with 1% paraformaldehyde. The fixed cells were incubated in a reaction mixture containing TdT and d-dUTP for 30 minutes at 37° C. Stop/wash buffer was added, and the cells were resuspended in 100 μl of fluorescinated anti-digoxigenin antibody for 30 minutes at room temperature. The cells were then washed with 0.1% Triton X-100 and counterstained with propidium iodide (PI) solution. Green (d-dUTP labeled DNA strand breaks) and red (PI staining for total DNA content) fluorescence of individual cells were measured on a FACScan flow cytometer (Becton Dickinson, San Jose, Calif.). The resulting bivariate plots enabled the detection of apoptotic events within the cell cycle. The R1 cursor was set using the control specimen to define normal levels of green fluorescence (i.e., basal levels of apoptosis). Cells with fluorescence above the R, cursor were considered apoptotic. The data from 10,000 cells were collected and analyzed using CellFit and LYSYS software (Becton Dickinson).
# For the QFM duplicate samples of 500 cells each were counted and scored for the incidence of apoptotic chromatin condensation using an Olympus BH-2 fluorescence microscope.
# [1] = system: MDA-MB-468 breast cancer cells; experiment: apoptosis by QFM, Hoechst-33258 staining; format: cell-based, human; conditions: for percentage of cells undergoing apoptosis (QFM): FIG. 9, safingol 50 μM
# Procedure: PRELIMINARY STUDIES. […] Apoptosis was measured by quantitative fluorescent microscopy (QFM) of nuclear changes induced by apoptosis, as determined by bisbenzimide trihydrochloride (Hoescht-33258) staining of condensed nuclear chromatin (24). For the QFM duplicate samples of 500 cells each were counted and scored for the incidence of apoptotic chromatin condensation using an Olympus BH-2 fluorescence microscope.
# Applicants also tested the PKC inhibitor UCN-01 (27) which is currently in phase I clinical trial at the NCI. In contrast to safingol, which inhibits PKC by binding to its regulatory domain, UCN-01 inhibits PKC at its catalytic domain. Therefore, assessment of the effect of UCN-01 on inducing apoptosis in combination with MMC on MDA-MB-468 was also performed. The QFM method to quantitate apoptosis was again used. The conditions tested were identical to those described above for safingol except UCN-01 (1 μM) was substituted for safingol in all the conditions.
# (§2) Induction of apoptosis was estimated by counting the frequency of condensed nuclear chromatin with Hoechst-33258 stain in duplicate samples of 400 cells.
# [2] = system: gastric cancer cells (SK-GT cells); experiment: cell proliferation studies with [3H]-thymidine; format: cell-based, human
# MKN-74 cells [3] = experiment: apoptosis by QFM, Hoechst-33258 staining; format: cell-based, human
# Procedure: as §1
# Apoptosis was again measured by QFM staining.
# as §2
# For these studies apoptosis was measured by quantitative fluorescent microscopy (QFM) determination with bisbenzimide trihydrochloride stain (Hoescht-33258) for condensed nuclear chromatin characteristic of apoptotic cells.
# For QFM determinations 500 cells were counted and scored for the incidence of apoptotic chromatin changes under an Olympus BH-2 fluorescence microscope in duplicate samples, ±SD, using a BH2-DM2U2UV Dich. Mirror Cube filter.
# To study this further applicants elected to examine five bis-indolylmaleimides with various potencies against PKC. […] The induction of apoptosis was estimated by counting the frequency of condensed nuclear chromatin with Hoechst-33258 stain in duplicate samples of 400 cells.
# cdk2 = cdk2 activity by histone type-I phosphorylation after immunoprecipitation from treated cells; format: cell-based, human; conditions: MKN-74 cells; 24 hours; MMC 5.0 μg/ml, safingol 50 μM; FIG. 8
# Procedure: (ii) Safingol increases cdk2 activity only when co-administered with chemotherapy: For determination of cdk2 activity MKN-74 cells were treated according to the conditions shown to enhance chemotherapy induced apoptosis: (i) no drug (control) for 24 hours, (ii) Mitomycin-C alone (5.0 μg/ml) for 24 hours, (iii) Safingol alone (50 μM) for 24 hours, (iv) the combination of safingol (50 μM) and Mitomycin-C (MMC, 5.0 μg/ml) for 24 hours. Cdk2 activity was determined by histone type-I phosphorylation, as described (38). For these studies cdk2 was first immunoprecipitated from the cell lysates following treatment under these four conditions. The kinase reaction was allowed to proceed at 30° for 30 minutes in the presence of histone type-I and [^32P]ATP. For each sample a control sample was run under the same conditions, but IgG was used in place of […]. This allowed for detection on non-specific kinase activity which was then subtracted out from the cdk2 activity to determine the absolute radioactive incorporation attributable to cdk2. The samples were transferred to a 10% SDS PAGE gel for analysis. The autoradiographs were analyzed on a phosphoimager for determinations of relative cdk2 activity.
# MKN-74 cells [4] = experiment: TdT assay with flow cytometry; format: cell-based, human; conditions: 24 hours; safingol 50 μM, MMC 5 μg/ml
# Procedure: Apoptosis was measured by two different methods: (i) Quantitative fluorescent microscopy (QFM) of nuclear changes induced by apoptosis, as determined by bisbenzimide trihydrochloride (Hoescht-33258) staining of nuclear chromatin (15), and (ii) a terminal deoxynucleotidyl transferase (TdT) assay that labels the 3′-OH ends of DNA fragments produced in apoptotic cells (16). […] MMC was diluted in water. A stock safingol solution was constituted in DMSO and was subsequently diluted at least 1:100 in media for all experiments. […] For QFM determinations, the cells were fixed in 3% paraformaldehyde and incubated at room temperature for 10 minutes. […] Aliquots of the cells (10 μl) were placed on glass slides coated with 3-amino-propyl-triethoxysilane, and duplicate samples of 500 cells each were counted and scored for the incidence of apoptotic chromatin condensation using an Olympus BH-2 fluorescence microscope equipped with a BH2-DM2U2UV Dich. […] Green (d-dUTP labeled DNA strand breaks) and red (PI staining for total DNA content) fluorescence of individual cells were measured on a FACScan flow cytometer (Becton Dickinson, San Jose, Calif.). […] The R1 cursor was set using the control specimen to define normal levels of green fluorescence (i.e., basal levels of apoptosis). Cells with fluorescence above the R, cursor were considered apoptotic. […]
# creatinine phosphokinase = conditions: read-out: concentration for 50% inhibition of creatinine phosphokinase; safingol; cited from earlier work
smiles,measurement,setting,value
"CO[C@@]12[C@H](COC(N)=O)C3=C(C(=O)C(C)=C(N)C3=O)N1C[C@@H]1N[C@@H]12 [MMC, Mitomycin-C]",percentage of cells undergoing apoptosis (QFM),SK-GT-5 cells,36%±4
same,percentage of cells undergoing apoptosis (QFM),"[1]; 24 hours, MMC 5.0 μg/ml",6%±1
same,percentage of cells undergoing apoptosis (QFM),"[1]; 24 hours, MMC […]",4%±2
same,"induction of apoptosis (condensed chromatin, 400 cells)","[1]; MDA-MB-468, 24 hours, UCN-01 7.5 to 10 μM, MMC 5 μg/ml",6% ± 1
same,percentage of cells undergoing apoptosis,"[1]; MDA-MB-468, flavopiridol, MMC",10%±2%
same,inhibition of cell proliferation,[2]; MMC 5 μg/ml,< 20% and 20%
same,Percent Apoptosis,"MKN-74 cells [3]; 24 h continuous (single drug) or concomitant, flavopiridol 300 nM, MMC 1 μg/ml, paclitaxel 50 μM, carboplatin",7%±1%
same,% APOPTOSIS,"MKN-74 cells [3]; 24 hours, FLAVO 300 nM, Taxol 50 μM, MMC 1 μg/ml, single drugs or in combination",7%
same,"percent induction of apoptosis, Concomitant","MKN-74 cells [3]; 24 hours, FLAVO 300 nM, Taxol 50 μM, MMC 1 μg/ml, single drugs or together",7% ± 1%
same,"induction of apoptosis (condensed chromatin, 400 cells)","MKN-74 cells [3]; 24 hours, PKC inhibitor 1 to 4 μM, MMC 5 μg/ml",10% ±2%
same,percentage of cells undergoing apoptosis (QFM),"MKN-74 cells [3]; 24 hours, RO 32-0432 1 μM, MMC",16%±2%
same,induction of apoptosis (QFM),"MKN-74 cells [3]; 24 hours, safingol 50 μM, UCN-01 10 μM, MMC 5 μg/ml",26%±5%
same,induction of apoptosis (QFM),"MKN-74 cells [3]; FIG. 7, 24 hours, flavopiridol 300 nM, MMC 50 μM (as printed b127)",7%±1%
same,percentage of cells undergoing apoptosis (QFM),"MKN-74 cells [3]; MKN-74 (wild-type p53), 24 hours, safingol 50 μM, MMC 5 μg/ml",40%
same,"induction of apoptosis (condensed chromatin, 400 cells)","MKN-74 cells [3]; MKN-74, 24 hours, Flavo 300 nM, MMC 5 μg/ml",7% ± 1
same,"percent induction of apoptosis, 6hrs","MKN-74 cells [3]; Ro 2 μM, MMC 1 μg/ml",1.0%
same,"percent induction of apoptosis, 12hrs","MKN-74 cells [3]; Ro 2 μM, MMC 1 μg/ml",0.8%
same,"percent induction of apoptosis, 24hrs","MKN-74 cells [3]; Ro 2 μM, MMC 1 μg/ml",5.8%
same,"percent induction of apoptosis, 48hrs","MKN-74 cells [3]; Ro 2 μM, MMC 1 μg/ml",27%
same,"percent induction of apoptosis, 72hrs","MKN-74 cells [3]; Ro 2 μM, MMC 1 μg/ml",30%
same,cdk2 activity,cdk2,decreased cdk2
same,apoptotic cells: green fluorescence above R1 region (TdT assay),MKN-74 cells [4],increased green fluorescence
"CCCCCCCCCCCCCCC[C@H](O)[C@@H](N)CO [safingol, L-threo-dihydrosphingosine]",percentage of cells undergoing apoptosis (QFM),SK-GT-5 cells,essentially no effect on inducing apoptosis
same,potentiation of MMC-induced apoptotic response by addition of safingol,SK-GT-5 cells; SK-GT-5,approximately 2 fold
same,IC50,creatinine phosphokinase,> 218 µM
same,percentage of cells undergoing apoptosis (QFM),"[1]; 24 hours, MMC 5.0 μg/ml",11%±1
same,highest non-toxic dose (cell proliferation studies),"[2]; SK-GT / SK-GT-5 / gastric cancer cells, 24 hours",50 µM
same,potentiation of MMC-induced apoptotic response by addition of safingol,MKN-74 cells [3]; MKN-74,approximately 2 fold
same,cdk2 activity,cdk2,decreased cdk2
same,apoptotic cells: green fluorescence above R1 region (TdT assay),MKN-74 cells [4],essentially no apoptosis
